Results published in patent publication US9670250B2, “Alpha-helical peptidomimetic inhibitors and methods using same” (The Trustees of the University of Pennsylvania, priority 2012, dated 2017).
One block for each molecule: values may come before it. Starred links: 1 amine or outer side, 2 acyl side, 3 side chain; linkers in the order of their positions; H or OH if unused. Positions of bridges follow the written chain, without caps; N, C: chain ends. Residues, ends and D or L forms follow the SMILES beside them. mXylylene = c1cc(C[*:1])cc(C[*:2])c1

Key:
Cathepsin S [1] = target: T1, Cathepsin S (Homo sapiens, UniProt P25774); test: in vitro fluorescence-based protease inhibition assay, cathepsin S; format: biochemical
Description: (§1) Thus, the present invention includes a series of potent and highly specific α-helical inhibitors for papain family cysteine proteases. […] These short α-helical peptidomimetic inhibitors are modeled after the natural pro-domain sequence but contain a cysteine substitution at specific residues in i,i+4 positions, as shown in FIG. 2B. These cysteine residues are used for stabilization of the helix utilizing an appropriate linker (Muppidi, et al., 2011, Chem Commun (Camb) 47:9396-9398). After synthesis, each inhibitor was tested against its respective protease using an in vitro fluorescence-based assay. For each enzyme, at least one inhibitor was identified that is relatively potent and highly specific for its individual protease. These inhibitors can be modified or otherwise optimized to attain higher potency and selectivity through identification of key interactions between the inhibitor and the active site amino acid residues. Such optimization involves visual examination of the protease crystal structure, and substitution with either non-natural or natural amino acids to exploit possible crucial non-covalent protein ligand interactions, such as hydrogen bond, electrostatic, hydrophobic, and Van der Waals interactions.
Target sequence in this assay (P25774 115-331, species assumed): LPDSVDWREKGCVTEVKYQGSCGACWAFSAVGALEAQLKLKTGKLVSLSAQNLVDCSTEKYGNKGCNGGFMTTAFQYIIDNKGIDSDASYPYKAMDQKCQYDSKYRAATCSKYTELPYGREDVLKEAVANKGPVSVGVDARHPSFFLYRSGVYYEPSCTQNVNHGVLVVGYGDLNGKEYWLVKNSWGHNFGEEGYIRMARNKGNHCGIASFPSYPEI

Cathepsin S [2] = target: T1, Cathepsin S; test: Ki (µM) (Cathepsin S)
Description: (§2) Table printed on a drawing sheet, FIGURES 2A & 2B
Head of the field: Ki (µM) (Cathepsin S)
(§3) The patent's description of the figure: FIG. 2, comprising FIGS. 2A-2C, illustrate inhibitors of the present invention. FIG. 2A depicts a list of parent and lead cysteine protease inhibitors and their Ki values The bold ‘C’ represents the cysteine linked at the i,i+4 position. […] FIG. 2B is a schematic representation of linked helical peptidomimetics. α,α′-Dibromo-meta-xylene is the i,i+4 linker. FIG. 2C illustrates circular dichroism spectra of unlinked (middle) and linked (right) peptidomimetics (key at left) in 50 mM Tris-HCl buffer (pH 7.5) and 40% trifluoroethanol (TFE). α-Helical stabilization substantially increases helicity in solution.
(§4) First copying reader's note: Bold C residues and underlined sequences mark the linked (stapled) peptides; the meanings of N/A and NT are not printed on the sheet.
Where the first naming reader finds the target: head: Ki (µM) (Cathepsin S)
Target sequence in this assay (P25774 115-331 limits assumed): as the sequence (P25774 115-331, species assumed) above

Cathepsin K [3] = target: Cathepsin K (Homo sapiens, UniProt P43235); test: Ki (µM) (Cathepsin K)
Description: as §2
Head of the field: Ki (µM) (Cathepsin K)
as §3, §4
Where the first naming reader finds the target: head: Ki (µM) (Cathepsin K)

Calpain-1 = Calpain-1 (Homo sapiens, UniProt P07384); test: Ki (µM) (Calpain)
Description: as §2
Head of the field: Ki (µM) (Calpain)
as §3, §4

Calpain (Calpain-1) = target: T2, Calpain (Calpain-1) (Homo sapiens, UniProt P07384); test: in vitro fluorescence-based protease inhibition assay, calpain; format: biochemical
T2 sequence (P07384 1-714): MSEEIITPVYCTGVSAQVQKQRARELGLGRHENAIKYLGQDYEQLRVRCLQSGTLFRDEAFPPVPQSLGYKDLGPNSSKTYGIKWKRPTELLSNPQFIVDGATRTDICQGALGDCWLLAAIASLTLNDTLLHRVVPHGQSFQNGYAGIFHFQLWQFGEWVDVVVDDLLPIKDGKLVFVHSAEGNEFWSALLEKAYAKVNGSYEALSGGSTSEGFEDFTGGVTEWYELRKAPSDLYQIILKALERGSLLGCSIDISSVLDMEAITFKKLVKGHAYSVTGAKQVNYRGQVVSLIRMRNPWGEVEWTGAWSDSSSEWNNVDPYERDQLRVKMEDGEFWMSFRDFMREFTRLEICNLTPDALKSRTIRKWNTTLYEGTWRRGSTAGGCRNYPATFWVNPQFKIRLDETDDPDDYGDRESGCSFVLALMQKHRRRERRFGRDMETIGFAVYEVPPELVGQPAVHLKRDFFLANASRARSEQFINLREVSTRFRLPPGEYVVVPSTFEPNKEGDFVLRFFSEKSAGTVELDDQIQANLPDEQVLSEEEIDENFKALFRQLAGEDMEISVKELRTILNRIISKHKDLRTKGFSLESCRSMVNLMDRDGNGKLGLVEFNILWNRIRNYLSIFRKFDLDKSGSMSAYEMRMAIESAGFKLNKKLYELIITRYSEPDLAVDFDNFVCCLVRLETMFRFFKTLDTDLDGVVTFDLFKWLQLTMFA
T2 sequence (P04632 1-268 partner): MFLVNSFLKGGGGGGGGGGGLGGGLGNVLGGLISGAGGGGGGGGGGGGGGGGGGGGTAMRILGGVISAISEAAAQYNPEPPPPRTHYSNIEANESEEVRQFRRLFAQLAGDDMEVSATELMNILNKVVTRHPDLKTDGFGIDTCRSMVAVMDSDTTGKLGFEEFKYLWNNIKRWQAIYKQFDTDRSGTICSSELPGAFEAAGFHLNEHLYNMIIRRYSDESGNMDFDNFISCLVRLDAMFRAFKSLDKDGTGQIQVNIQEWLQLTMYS
Description: as §1

Cathepsin L = Cathepsin L (Homo sapiens, UniProt P07711); test: in vitro fluorescence-based protease inhibition assay, cathepsin L; format: biochemical
Description: as §1

Cathepsin K [4] = target: T3, Cathepsin K (Homo sapiens, UniProt P43235); test: in vitro fluorescence-based protease inhibition assay, cathepsin K; format: biochemical
T3 sequence (P43235 115-329): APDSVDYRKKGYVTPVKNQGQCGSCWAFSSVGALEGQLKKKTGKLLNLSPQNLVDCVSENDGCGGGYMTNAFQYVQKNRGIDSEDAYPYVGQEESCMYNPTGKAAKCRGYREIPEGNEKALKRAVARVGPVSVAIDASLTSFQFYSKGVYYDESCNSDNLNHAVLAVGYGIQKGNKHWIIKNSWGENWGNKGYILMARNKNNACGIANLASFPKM
Description: as §1

[5] = Table 2, cathepsin S inhibitors
[6] = Table 3, cathepsin K inhibitors

Sequence of Cathepsin L (P07711 114-333, species assumed): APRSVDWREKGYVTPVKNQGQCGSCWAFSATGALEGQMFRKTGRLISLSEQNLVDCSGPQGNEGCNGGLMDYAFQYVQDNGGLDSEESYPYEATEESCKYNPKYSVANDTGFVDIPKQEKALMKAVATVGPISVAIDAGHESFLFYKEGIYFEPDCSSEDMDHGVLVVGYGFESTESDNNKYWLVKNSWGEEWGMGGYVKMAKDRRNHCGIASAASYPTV

Ki (Calpain (Calpain-1); [5]): > 100 µM | Ki (Cathepsin L; [5]): 57.1 ± 1.24 µM | Ki (Cathepsin K [4]; [5]): > 100 µM
Molecule: CSCC[C@@H]1NC(=O)[C@H](CC(C)C)NC(=O)[C@H](CO)NC(=O)[C@@H](NC(=O)[C@@H](NC(=O)[C@H](Cc2c[nH]c3ccccc23)NC(=O)[C@H](CCC(=O)O)NC(=O)[C@H](CO)NC(=O)[C@@H](N)[C@@H](C)O)C(C)C)CSCc2cccc(c2)CSC[C@@H](C(=O)N[C@@H](CO)C(=O)O)NC1=O [compound 20] (H-TSEWVCSLMCS-OH; linker 6-10 via mXylylene; N-terminus and C-terminus assumed)

Ki (Calpain (Calpain-1); [6]): > 100 µM | Ki (Cathepsin L; [6]): > 100 µM | Ki (Cathepsin K [4]; [6]): > 100 µM
Molecule: CSCC[C@H](NC(=O)[C@H](CCCCN)NC(=O)[C@@H]1CSCc2cccc(c2)CSC[C@H](NC(=O)[C@@H](N)CO)C(=O)N[C@@H](CCC(=O)O)C(=O)N[C@@H](CO)C(=O)N[C@@H](C(C)C)C(=O)N1)C(=O)N[C@H](C(=O)NCC(=O)N[C@@H](CC(C)C)C(=O)O)[C@@H](C)O [compound 37] (H-SCESVCKMTGL-OH; linker 2-6 via mXylylene; N-terminus and C-terminus assumed)

cathepsin S inhibitory activity, in words (Cathepsin S [1]): increased inhibition | effect on cathepsin K (inhibition or activation), in words (Cathepsin K [4]): did not inhibit
Molecule: TSEEVCSLMCS [SEQ ID NO:16]
potency on cathepsin L over cathepsin S, in words (Cathepsin L): much more potent inhibitor of cathepsin L over cathepsin S

The next lines start with the molecule.

Molecule: CSCC[C@H](NC(=O)[C@H](CC(C)C)NC(=O)[C@H](CO)NC(=O)[C@H](CC(N)=O)NC(=O)[C@H](CCSC)NC(=O)[C@@H](NC(=O)[C@H](CCC(=O)O)NC(=O)[C@H](CCC(=O)O)NC(=O)[C@H](CO)NC(=O)[C@@H](N)[C@@H](C)O)C(C)C)C(=O)N[C@@H](CO)C(=O)N[C@@H](CO)C(=O)O [SEQ ID NO:14, TSEEVMNSLMSS, reference compound] (H-TSEEVMNSLMSS-OH)
cathepsin S inhibitory activity, in words (Cathepsin S [1]): did not demonstrate any intrinsic inhibitory activity

Molecule: CSCC[C@H](NC(=O)[C@H](CC(C)C)NC(=O)[C@H](CO)NC(=O)[C@H](CC(N)=O)NC(=O)[C@H](CCSC)NC(=O)[C@@H](NC(=O)[C@H](CCC(=O)O)NC(=O)[C@H](CCC(=O)O)NC(=O)[C@H](CO)NC(=O)[C@@H](N)[C@@H](C)O)C(C)C)C(=O)N[C@@H](CO)C(=O)N[C@@H](CO)C(=O)O [SEQ ID NO:14, TSEEVMNSLMSS] (H-TSEEVMNSLMSS-OH; N-terminus and C-terminus assumed)
Ki (Cathepsin S [2]): > 100 µM

Molecule: CSCC[C@H](NC(=O)[C@H](CCCCN)NC(=O)[C@H](CCC(N)=O)NC(=O)[C@@H](NC(=O)[C@@H](NC(=O)[C@H](CCC(=O)O)NC(=O)[C@H](CCC(=O)O)NC(=O)[C@@H](N)CO)C(C)C)C(C)C)C(=O)N[C@H](C(=O)NCC(=O)N[C@@H](CC(C)C)C(=O)O)[C@@H](C)O [SEQ ID NO:32, SEEVVQKMTGL] (H-SEEVVQKMTGL-OH; N-terminus and C-terminus assumed)
Ki (Cathepsin K [3]): > 100 µM

Molecule: CC[C@H](C)[C@H](N)C(=O)N1CCC[C@H]1C(=O)N1CCC[C@H]1C(=O)N[C@@H](CCCCN)C(=O)N[C@@H](Cc1ccc(O)cc1)C(=O)N[C@@H](CCCNC(=N)N)C(=O)N[C@@H](CCC(=O)O)C(=O)N[C@@H](CC(C)C)C(=O)N[C@@H](CC(C)C)C(=O)N[C@@H](C)C(=O)O [SEQ ID NO:62, IPPKYRELLA] (H-IPPKYRELLA-OH; N-terminus and C-terminus assumed)
Ki (Calpain-1): > 100 µM

Molecule: CC[C@H](C)[C@H](NC(=O)[C@@H](NC(=O)[C@@H](NC(=O)[C@H](CCC(=O)O)NC(=O)[C@H](CCCNC(=N)N)NC(=O)[C@H](CCCCN)NC(=O)CNC(=O)[C@@H](N)CC(C)C)C(C)C)[C@@H](C)O)C(=O)N1CCC[C@H]1C(=O)N1CCC[C@H]1C(=O)N[C@@H](CCCCN)C(=O)N[C@@H](Cc1ccc(O)cc1)C(=O)N[C@H]1CSCc2cccc(c2)CSC[C@@H](C(=O)O)NC(=O)[C@H](CC(C)C)NC(=O)[C@H](CC(C)C)NC(=O)[C@H](CCC(=O)O)NC1=O [compound 67] (H-LGKREVTIPPKYCELLC-OH; linker 13-17 via mXylylene; N-terminus and C-terminus assumed)
Ki (Calpain (Calpain-1); Table 4, calpain inhibitors): 3.6 ± 1.7 µM | Ki (Cathepsin L; Table 4, calpain inhibitors): > 100 µM | Ki (Cathepsin K [4]; Table 4, calpain inhibitors): > 100 µM

Molecule: TWEWVCSLMCS [SEQ ID NO:23]
specificity for cathepsin S over cathepsin L (Cathepsin S [1]): twice as specific
